Earlier results in patent US20070225367A1, “Composition for beneficially influencing Alzheimer's disease and/or for Alzheimer's prophylaxis” (Clariant International Ltd, priority 2006, published 2007).

What was measured:
β-amyloid levels = settings: oral administration, APP transgenic mice
β-amyloid aggregation = β-amyloid aggregation (Homo sapiens, UniProt P05067); settings: in vitro
β-amyloid aggregation, sequence (P05067 672-713 limits assumed): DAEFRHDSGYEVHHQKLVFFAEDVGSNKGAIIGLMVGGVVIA

Compound: [Cu] [copper]
- β-amyloid levels (β-amyloid levels): reduced
- effect on β-amyloid aggregation (β-amyloid aggregation): inhibitory effect
